Literature values, collected in PMC8148172, “Evaluation of a Keratin 1 Targeting Peptide-Doxorubicin Conjugate in a Mouse Model of Triple-Negative Breast Cancer” (Pharmaceutics, 2021).

Legend:
[1] = parameters: method as in PMID 27370248, PMID 16515518; settings: as conjugate with circulating albumin
[2] = tested on: TNBC; parameters: method as in PMID 28520410

| Compound | greater doses of Dox administered with minimal cardiotoxicity [1] | targeting of TNBC relative to linear 18-4 peptide [2] |
| --- | --- | --- |
| COc1cccc2c1C(=O)c1c(O)c3c(c(O)c1C2=O)C[C@@](O)(/C(CO)=N/NC(=O)CCCCCN1C(=O)C=CC1=O)C[C@@H]3O[C@H]1C[C@H](N)[C@H](O)[C@H](C)O1 [Aldox, aldoxorubicin] | 3–4 × |  |
| N- to C-terminal cyclized WXEAAYQkFL [cyclic analogue of 18-4] |  | 2–3 fold |
